Assay results as given in PMC10730852 (Communications Biology, 2023).

Key:
[1] = biological target: T1, Cph001 (Streptosporangium roseum, UniProt D2B3F1); experiment: Isothermal titration calorimetry (ITC) analysis of Cph001; type: binding
T1 sequence (D2B3F1 1-286): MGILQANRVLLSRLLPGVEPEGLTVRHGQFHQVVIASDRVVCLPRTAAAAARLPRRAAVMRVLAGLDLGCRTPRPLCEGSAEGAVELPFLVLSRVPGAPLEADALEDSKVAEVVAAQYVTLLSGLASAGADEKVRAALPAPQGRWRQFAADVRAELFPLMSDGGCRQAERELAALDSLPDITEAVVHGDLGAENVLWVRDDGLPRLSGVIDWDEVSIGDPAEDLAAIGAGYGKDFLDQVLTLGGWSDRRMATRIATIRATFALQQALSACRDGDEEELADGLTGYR
From the text: The integrated heat areas constitute a differential binding curve that was fitted with a standard single-site binding model by Origin 7.

[2] = system: Cph; experiment: Coupled enzyme assay and kinetics of Cph; type: biochemical, Saccharothrix mutabilis subsp. capreolus; details: for absorbance at 340 nm, Average of triplicate: substrate + ATP
Method: The phosphorylation reaction was measured by a coupled enzyme assay as following. […] The reactions were mixed well in a final volume of 200 μL in 96-well plates. The Cph001 activity was assayed by determining the oxidation of NADH at 340 nm. The reaction buffer and enzyme concentration of the Cph reaction was followed by previous study. The 340 nm absorbance changes were detected at 30 °C for every 1 min at a time in 15 min on an EPOCH Microplate Reader (BioTek). All reactions were carried out in triplicate.

[3] = system: Cph001^D189A; experiment: Coupled enzyme assay of Cph001 variant; type: biochemical, Streptosporangium roseum; details: for absorbance at 340 nm, Average of triplicate: 2 mM substrate + ATP
Method: The phosphorylation reaction was measured by a coupled enzyme assay as following. The reaction 1, performed by 0.77 μM Cph001 with 2 mM antibiotic substrates (CMN IIA, CMN IIB, VIO, Kan, or Ery), was coupled to the reaction 2 and 3 in the presence of 4 U PK (pyruvate kinase from rabbit muscle, Merck), 4 U LDH (lactate dehydrogenase from rabbit muscle, Merck), 2 mM ATP or GTP, 2 mM PEP (phosphoenolpyruvate), 0.5 mM NADH, 40 mM KCl and 5 mM MgCl2 in a reaction buffer containing 400 mM NaCl and 20 mM Tris buffer at pH 8.0. The reactions were mixed well in a final volume of 200 μL in 96-well plates. The Cph001 activity was assayed by determining the oxidation of NADH at 340 nm. The reaction buffer and enzyme concentration of the Cph reaction was followed by previous study. The 340 nm absorbance changes were detected at 30 °C for every 1 min at a time in 15 min on an EPOCH Microplate Reader (BioTek). All reactions were carried out in triplicate.

[4] = system: Cph; parameters: method as in Previous kinetic studies; details: ATP as a phosphate donor; ref Previous kinetic studies; read-out: Km value of Cph for CMN IIA; cited from earlier work

N=C1NCCC([C@@H]2NC(=O)/C(=C/NC(N)=O)NC(=O)[C@H](CNC(=O)C[C@@H](N)CCCN)NC(=O)[C@H](CO)NC(=O)[C@@H](N)CNC2=O)N1 (stereo in doubt) [CMN IIA]
Kd [1]: 1240 ± 80 nM
phosphorylation by Cph in couple enzyme assay ([2]; CMN IIA and ATP, absorbance at 340 nm): decrease in absorbance at 340 nm
absorbance at 340 nm, Average of triplicate ([2]; time 00:00:00): 1.495
absorbance at 340 nm, Average of triplicate ([2]; time 00:01:00): 1.379
absorbance at 340 nm, Average of triplicate ([2]; time 00:02:00): 1.219
absorbance at 340 nm, Average of triplicate ([2]; time 00:03:00): 1.045
absorbance at 340 nm, Average of triplicate ([2]; time 00:04:00): 0.85
absorbance at 340 nm, Average of triplicate ([2]; time 00:05:00): 0.6453
absorbance at 340 nm, Average of triplicate ([2]; time 00:06:00): 0.4483
absorbance at 340 nm, Average of triplicate ([2]; time 00:07:00): 0.303
absorbance at 340 nm, Average of triplicate ([2]; time 00:08:00): 0.2213
absorbance at 340 nm, Average of triplicate ([2]; time 00:09:00): 0.1687
absorbance at 340 nm, Average of triplicate ([2]; time 00:10:00): 0.136
absorbance at 340 nm, Average of triplicate ([2]; time 00:11:00): 0.1227
absorbance at 340 nm, Average of triplicate ([2]; time 00:12:00): 0.1173
absorbance at 340 nm, Average of triplicate ([2]; time 00:13:00): 0.1173
absorbance at 340 nm, Average of triplicate ([2]; time 00:14:00): 0.1173
absorbance at 340 nm, Average of triplicate ([2]; time 00:15:00): 0.1177
phosphotransferase activity of variant ([3]; CMN IIA + ATP): complete loss of phosphotransferase activity
absorbance at 340 nm, Average of triplicate ([3]; time 00:00:00): 1.495
absorbance at 340 nm, Average of triplicate ([3]; time 00:01:00): 1.482
absorbance at 340 nm, Average of triplicate ([3]; time 00:02:00): 1.504
absorbance at 340 nm, Average of triplicate ([3]; time 00:03:00): 1.549
absorbance at 340 nm, Average of triplicate ([3]; time 00:04:00): 1.574
absorbance at 340 nm, Average of triplicate ([3]; time 00:05:00): 1.588
absorbance at 340 nm, Average of triplicate ([3]; time 00:06:00): 1.596
absorbance at 340 nm, Average of triplicate ([3]; time 00:07:00): 1.602
absorbance at 340 nm, Average of triplicate ([3]; time 00:08:00): 1.612
absorbance at 340 nm, Average of triplicate ([3]; time 00:09:00): 1.625
absorbance at 340 nm, Average of triplicate ([3]; time 00:10:00): 1.641
absorbance at 340 nm, Average of triplicate ([3]; time 00:11:00): 1.654
absorbance at 340 nm, Average of triplicate ([3]; time 00:12:00): 1.662
absorbance at 340 nm, Average of triplicate ([3]; time 00:13:00): 1.67
absorbance at 340 nm, Average of triplicate ([3]; time 00:14:00): 1.682
absorbance at 340 nm, Average of triplicate ([3]; time 00:15:00): 1.69
Km [4]: 460 µM
